Measured values from article PMC7504348 (Molecules, 2020).
Read-outs that look alike come from different tables or passages of the source.

Legend:
[1] = target: T1, acetylcolinesterase from electric eel (Type VI) (Electrophorus electricus, UniProt O42275); assay: biochemical; settings: reported with SD; assayed in triplicate; read-out: AChE IC50
T1 construct: purified acetylcolinesterase from electric eel (Type VI); tissue Type VI; host or cells: electric eel
Description: The assay was performed in 96-well microtiter plates in the same condition for both chalcones and control substance. 25 µL of 100 mM sodium phosphate buffer pH 8, 25 µL of sample and 25 µL acetylcholinesterase solutions containing 0.54 U/mL were mixed in each well of the plate and allowed to incubate for 15 min at 25 °C. Subsequently, 25 µL of a solution of ATCI (15 mM, dissolved in water) and 125 µL of 3 mM DTNB (5,5’-dithio-bis-nitro benzoic acid) were added. The absorbance at 405 nm was recorded during the first 5 min of the reaction. […] Percentages (%) of AChE inhibitions of tested compounds were calculated from the absorbance values as indicated in Equation (1):% I = [(A0E − A0) − (Ac − A0C)]/(A0E − A0)(1) where I is the percent inhibition of acetylcholinesterase; A0E is the absorbance value of the control blank sample with enzyme; A0 is the absorbance value of blank sample; Ac is the absorbance value of the tested sample; A0C is the absorbance value of blank test sample.
The method was as described earlier.

β-secretase (BACE-1) = target: T2, β-secretase (BACE-1) (Homo sapiens, UniProt P56817); assay: biochemical; settings: reported with SD
T2 construct: purchased Sigma–Aldrich
T2 sequence (P56817 46-501): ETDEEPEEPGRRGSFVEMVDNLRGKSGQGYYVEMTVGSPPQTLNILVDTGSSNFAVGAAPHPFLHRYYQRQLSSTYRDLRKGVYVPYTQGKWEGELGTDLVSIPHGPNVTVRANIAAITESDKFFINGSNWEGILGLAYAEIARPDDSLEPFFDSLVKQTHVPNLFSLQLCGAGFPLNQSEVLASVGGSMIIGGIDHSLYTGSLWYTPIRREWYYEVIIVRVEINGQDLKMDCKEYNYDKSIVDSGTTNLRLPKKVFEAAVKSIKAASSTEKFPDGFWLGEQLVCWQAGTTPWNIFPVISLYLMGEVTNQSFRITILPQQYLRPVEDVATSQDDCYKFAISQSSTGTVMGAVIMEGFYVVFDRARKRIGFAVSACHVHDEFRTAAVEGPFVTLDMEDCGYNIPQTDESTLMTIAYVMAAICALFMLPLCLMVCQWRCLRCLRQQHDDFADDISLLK
Description: β-secretase (BACE-1) Activity Detection Kit (Fluorescent) was purchased from Sigma–Aldrich and used to determine the effect of the synthesized chalcones on β-secretase activity. The assay was carried out according to the manufacturer’s protocol. The enzyme solution (0.3 units/uL, 2 μL) was reacted with the 50 μM of the substrate (7-methoxycumarin- 4-acetyl-(Asn670, Lue671)-amyloid β/A4 precursor protein 770 fragment 667–676-(2,4-dinitrophenyl))Lys-Arg-Arg amide trifluoroacetate salt and sulfated polysaccharide samples (2–5 mg/mL) in a fluorescence assay buffer in different wells. Baseline readings were measure immediately on a Hitachi F-7000 (excitation: 320 nm; emission: 405 nm) fluorescence spectrophotometer and repeated after 2 h incubation at 37 °C. […] The method was as described earlier.

[2] = pIC50 = −logIC50, read-out: BACE-1 pIC50 Observed (converted)

T1 sequence (O42275 24-633): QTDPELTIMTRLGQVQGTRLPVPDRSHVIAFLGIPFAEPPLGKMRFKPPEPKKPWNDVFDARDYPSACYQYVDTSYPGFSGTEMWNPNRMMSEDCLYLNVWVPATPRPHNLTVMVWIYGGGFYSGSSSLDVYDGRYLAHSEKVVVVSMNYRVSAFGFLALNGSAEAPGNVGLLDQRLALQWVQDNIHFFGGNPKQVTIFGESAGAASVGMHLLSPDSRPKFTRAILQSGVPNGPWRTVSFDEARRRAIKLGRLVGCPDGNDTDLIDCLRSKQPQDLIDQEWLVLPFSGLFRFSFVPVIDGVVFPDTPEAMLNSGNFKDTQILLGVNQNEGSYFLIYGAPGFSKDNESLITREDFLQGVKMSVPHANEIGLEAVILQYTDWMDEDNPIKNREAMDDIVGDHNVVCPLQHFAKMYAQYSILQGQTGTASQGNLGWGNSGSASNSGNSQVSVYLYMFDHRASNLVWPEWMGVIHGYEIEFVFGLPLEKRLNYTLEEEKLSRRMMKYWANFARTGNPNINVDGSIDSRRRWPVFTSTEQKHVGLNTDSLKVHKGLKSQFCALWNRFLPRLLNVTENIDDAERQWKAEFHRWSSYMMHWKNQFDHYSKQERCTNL

CN(C)CCCN1c2ccccc2Sc2ccc(C(=O)/C=C/c3ccc(Cl)cc3)cc21 [AC5] gave an IC50 [1] of 60.3 ± 1.84 µM, an IC50 (β-secretase (BACE-1); [2]) of 1.23 µM and an IC50 (β-secretase (BACE-1); read-out: BACE-1 IC50) of 1.24 ± 0.12 µM.
Work on COc1cccc(/C=C/C(=O)c2ccc3c(c2)N(CCCN(C)C)c2ccccc2S3)c1 [AC2, (E)-1-(10-(3-(dimethylamino)propyl)-10H-phenothiazin-2-yl)-3-(3-methoxyphenyl)prop-2-en-1-one] yielded an IC50 [1] of 30.9 ± 2.1 µM, an IC50 (β-secretase (BACE-1); [2]) of 3.02 µM and an IC50 (β-secretase (BACE-1); read-out: BACE-1 IC50) of 3 µM.
In the case of CN(C)CCCN1c2ccccc2Sc2ccc(C(=O)/C=C/c3ccccc3Cl)cc21 [AC8], the IC50 [1] is reported as 15.8 ± 1.08 µM, the IC50 (β-secretase (BACE-1); [2]) is reported as 2.95 µM and the IC50 (β-secretase (BACE-1); read-out: BACE-1 IC50) is reported as 2.97 ± 0.05 µM.
Work on CN(C)CCCN1c2ccccc2Sc2ccc(C(=O)/C=C/c3ccc(Cl)cc3Cl)cc21 [AC6] yielded an IC50 [1] of 20 ± 1.57 µM, an IC50 (β-secretase (BACE-1); [2]) of 0.501 µM and an IC50 (β-secretase (BACE-1); read-out: BACE-1 IC50) of 0.5 µM.
COc1cc(/C=C/C(=O)c2ccc3c(c2)N(CCCN(C)C)c2ccccc2S3)cc(OC)c1OC [AC4, (E)-1-(10-(3-(dimethylamino)propyl)-10H-phenothiazin-2-yl)-3-(3,4,5-trimethoxyphenyl)prop-2-en-1-one] was tested, and the IC50 [1] was 3.63 ± 0.61 µM, the IC50 (β-secretase (BACE-1); [2]) was 0.155 µM and the IC50 (β-secretase (BACE-1); read-out: BACE-1 IC50) was 0.16 ± 0.03 µM.
CN(C)CCCN1c2ccccc2Sc2ccc(C(=O)/C=C/c3ccccc3C(F)(F)F)cc21 [AC11] gave an IC50 [1] of 186 ± 4.52 µM, an IC50 (β-secretase (BACE-1); [2]) of 0.398 µM and an IC50 (β-secretase (BACE-1); read-out: BACE-1 IC50) of 0.4 µM.
For CN(C)CCCN1c2ccccc2Sc2ccc(C(=O)/C=C/c3ccc(N(C)C)cc3)cc21 [AC12], the IC50 [1] was 1.1 ± 0.24 µM, the IC50 (β-secretase (BACE-1); [2]) was 0.347 µM and the IC50 (β-secretase (BACE-1); read-out: BACE-1 IC50) was 0.35 ± 0.04 µM.
CN(C)CCCN1c2ccccc2Sc2ccc(C(=O)/C=C/c3c(F)cccc3Cl)cc21 [AC7] was tested, and the IC50 [1] was 40.7 ± 2.48 µM, the IC50 (β-secretase (BACE-1); [2]) was 0.447 µM and the IC50 (β-secretase (BACE-1); read-out: BACE-1 IC50) was 0.45 ± 0.04 µM.
CN(C)CCCN1c2ccccc2Sc2ccc(C(=O)/C=C/c3ccccc3)cc21 [AC1, (E)-1-(10-(3-(dimethylamino)propyl)-10H-phenothiazin-2-yl)-3-phenylprop-2-en-1-one] was tested, and the IC50 [1] was 33.9 ± 1.45 µM, the IC50 (β-secretase (BACE-1); [2]) was 6.31 µM and the IC50 (β-secretase (BACE-1); read-out: BACE-1 IC50) was 6.34 ± 0.46 µM.
For CN(C)CCCN1c2ccccc2Sc2ccc(C(=O)/C=C/c3cccc(Br)c3)cc21 [AC10], the IC50 [1] was 24.6 ± 1.09 µM, the IC50 (β-secretase (BACE-1); [2]) was 2 µM and the IC50 (β-secretase (BACE-1); read-out: BACE-1 IC50) was 1.99 ± 0.21 µM.
Compound COc1ccc(/C=C/C(=O)c2ccc3c(c2)N(CCCN(C)C)c2ccccc2S3)cc1 [AC3, (E)-1-(10-(3-(dimethylamino)propyl)-10H-phenothiazin-2-yl)-3-(4-methoxyphenyl)prop-2-en-1-one] has an IC50 [1] of 11.5 ± 1.29 µM, an IC50 (β-secretase (BACE-1); [2]) of 4.47 µM and an IC50 (β-secretase (BACE-1); read-out: BACE-1 IC50) of 4.48 ± 0.4 µM.
CN(C)CCCN1c2ccccc2Sc2ccc(C(=O)/C=C/c3ccc(OCc4ccccc4)cc3)cc21 [AC13] showed an IC50 [1] of 11.8 ± 0.63 µM, an IC50 (β-secretase (BACE-1); [2]) of 3.02 µM and an IC50 (β-secretase (BACE-1); read-out: BACE-1 IC50) of 3.03 ± 0.21 µM.
For CN(C)CCCN1c2ccccc2Sc2ccc(C(=O)/C=C/c3ccc(F)cc3)cc21 [AC9, (E)-1-(10-(3-(dimethylamino)propyl)-10H-phenothiazin-2-yl)-3-(4-fluorophenyl)prop-2-en-1-one], the IC50 [1] was 25.1 ± 0.83 µM, the IC50 (β-secretase (BACE-1); [2]) was 3.72 µM and the IC50 (β-secretase (BACE-1); read-out: BACE-1 IC50) was 3.72 ± 0.21 µM.
